Where two headings read alike, the source gives them in different places.
Tests used:
Assay type in all cases: biochemical
procaspase-6 = molecular target: T1, procaspase-6 (Homo sapiens, UniProt P55212); experiment: Executioner procaspase-6 activation assay (Ac-VEID-AFC fluorogenic substrate); details: incubation with compound for 5 h at 37° C.; 100 nM procaspase
T1 sequence (P55212 1-293): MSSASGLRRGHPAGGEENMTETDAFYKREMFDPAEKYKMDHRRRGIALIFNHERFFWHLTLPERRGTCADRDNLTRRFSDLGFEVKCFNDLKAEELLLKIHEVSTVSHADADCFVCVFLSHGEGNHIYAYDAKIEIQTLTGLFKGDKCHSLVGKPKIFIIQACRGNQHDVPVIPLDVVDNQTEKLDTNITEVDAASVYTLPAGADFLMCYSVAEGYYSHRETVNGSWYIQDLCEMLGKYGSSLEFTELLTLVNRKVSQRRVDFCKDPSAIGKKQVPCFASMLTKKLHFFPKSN
Summary of the method: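 Procaspase at 100 nM incubated with compound (100 nM–100 μM) in 50 mM HEPES pH 7.4, KCl, DTT, 0.01% Triton X-100, 3% DMSO, 37 °C for 5 h; then 25 μM Ac-DEVD-AFC (procaspase-7) or Ac-VEID-AFC (procaspase-6), kinetic fluorescence 30 min (ex 365/em 495); EC50 reported.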

procaspase-3 = molecular target: T2, procaspase-3 (Homo sapiens, UniProt P42574); experiment: Executioner procaspase-3 activation assay (Ac-DEVD-AFC fluorogenic substrate)
T2 construct: His6 (C); made in house; host or cells: E. coli BL21(DE3)RP, pET-23b
T2 sequence (P42574 1-277): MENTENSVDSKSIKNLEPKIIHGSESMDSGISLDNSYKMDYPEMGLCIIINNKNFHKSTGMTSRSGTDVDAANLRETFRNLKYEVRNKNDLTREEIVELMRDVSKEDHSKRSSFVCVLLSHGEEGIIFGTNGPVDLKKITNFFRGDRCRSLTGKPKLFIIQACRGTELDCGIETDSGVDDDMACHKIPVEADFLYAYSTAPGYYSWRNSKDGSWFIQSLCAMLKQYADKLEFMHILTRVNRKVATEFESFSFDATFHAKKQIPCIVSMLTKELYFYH
Summary of the method: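 Procaspase-3 at 100 nM was incubated with activating compounds (100 nM to 100 uM) in 50 mM HEPES pH 7.4, 50 mM KCl, 1 mM DTT and 0.01% Triton-X100, the detergent limiting aggregation artefacts. Protein, substrate and inhibitor were kept as frozen aliquots and thawed just before use.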

procaspase-7 = molecular target: T3, procaspase-7 (Homo sapiens, UniProt P55210); experiment: Executioner procaspase-7 activation assay (Ac-DEVD-AFC fluorogenic substrate); details: incubation with compound for 5 h at 37° C.; 100 nM procaspase
T3 construct: His6 (C); made in house; host or cells: E. coli BL21(DE3)RP, pET-21b
T3 sequence (P55210 1-303): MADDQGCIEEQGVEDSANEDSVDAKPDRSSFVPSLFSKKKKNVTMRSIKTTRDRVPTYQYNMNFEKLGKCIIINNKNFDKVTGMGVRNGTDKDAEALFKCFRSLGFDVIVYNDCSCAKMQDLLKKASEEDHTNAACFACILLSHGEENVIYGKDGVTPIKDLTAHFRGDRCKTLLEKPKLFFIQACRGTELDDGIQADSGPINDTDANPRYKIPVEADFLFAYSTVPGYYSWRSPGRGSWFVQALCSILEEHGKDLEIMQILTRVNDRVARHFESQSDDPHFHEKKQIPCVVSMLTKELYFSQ
Protocol: The executioner procaspase-3, -6 and -7 activation assay protocol involves incubating the target protein at the physiologically-relevant concentration of 100 nM with activating compounds (ranging from 100 nM to 100 uM) in a total volume of 50 μL consisting of a reaction buffer of 50 mM HEPES, pH 7.4, 50 mM KCl, 1 mM DTT and 0.01% Triton-X100 (to reduce false positive hits due to compound aggregation). The procaspase/small molecule incubations are then agitated at 37° C. and assayed at various time points by addition of the fluorogenic peptide substrate 7-Amino-4-trifluoromethylcoumarin-DEVD (Ac-DEVD-AFC) (procaspases-3, -7) or Ac-VEID-AFC (procaspase-6) to a final concentration of 25 μM and analyzed by a kinetic 30 minute assay (excitation 365 nm and emission 495 nm). The final concentration of DMSO in each well is 3% and has no effect on enzyme stability or activity. […] All components of the assay including protein, substrate and inhibitor are stored as frozen aliquots and thawed immediately prior to the assay.
Tables 1 and 2. Procaspase activation as a result of incubation with compound for 5 h at 37° C. (+++ EC50˜0.5-10 μM; ++ EC50˜10-50 μM; + EC50˜50-200 μM; -no activation observed; ND not determined).

[1] = incubation with compound for 5 h at 37° C., 100 nM procaspase, read-out: Procaspase Activation 3

| Structure (SMILES) | EC50 (procaspase-6) [µM] | EC50 (procaspase-3; [1]) [µM] | EC50 (procaspase-7) [µM] | EC50 (procaspase-3) [µM] |
| --- | --- | --- | --- | --- |
| COc1cccc2cc(C(=O)Nc3cccc(-c4ccc5cc[nH]c5c4)c3)c(=O)oc12 [compound 166, 8-Methoxy-2-oxo-2H-chromene-3-carboxylic acid [3-(1H-indol-6-yl)-phenyl]-amide] | > 100 |  | > 100 | > 100 |
| O=C(Nc1cccc(-c2ccc3[nH]ccc3c2)c1)c1cc2cccc(OC(F)(F)F)c2oc1=O [compound 94, 8-Trifluoromethoxy-2-oxo-2H-chromene-3-carboxylic acid (3-(1H-Indol-5-yl)-phenyl)-amide] | > 100 |  | > 100 | > 100 |
| COc1ccc(-c2cccc(NC(=O)c3cc4cccc(OC)c4oc3=O)c2)c(OC)c1 [compound 51, 8-Methoxy-2-oxo-2H-chromene-3-carboxylic acid (2′,4′-dimethoxy-biphenyl-3-yl)-amide] | > 100 | > 100 | > 100 |  |
| COc1ccc(-c2cccc(NC(=O)c3cc4cccc(O)c4oc3=O)c2)cc1OC [compound 53, 8-Hydroxy-2-oxo-2H-chromene-3-carboxylic acid (3′,4′-Dimethoxy-biphenyl-3-yl)-amide] | > 100 | > 100 | 0.5 to 10 |  |
| N#Cc1ccc(-c2cccc(NC(=O)c3cc4cccc(O)c4oc3=O)c2)cc1F [compound 143, 8-Hydroxy-2-oxo-2H-chromene-3-carboxylic acid (4′-cyano-3′-fluoro-biphenyl-3-yl)-amide] | > 100 | > 100 | > 100 |  |
| Cn1cc(-c2cccc(NC(=O)c3cc4cccc(O)c4oc3=O)c2)cn1 [compound 171, 8-Hydroxy-2-oxo-2H-chromene-3-carboxylic acid [3-(1-methyl-1H-pyrazol-4-yl)-phenyl]-amide] | > 100 | > 100 | > 100 |  |
| O=C(Nc1cccc(-c2ccc(Oc3ccccc3)cc2)c1)c1cc2cccc(O)c2oc1=O [compound 59, 8-Hydroxy-2-oxo-2H-chromene-3-carboxylic acid (4′-phenoxy-biphenyl-3-yl)-amide] | > 100 | > 100 | > 100 |  |
| COc1cccc2cc(C(=O)Nc3cccc(-c4ccc5c(ccn5C)c4)c3)c(=O)oc12 [compound 164, 8-Methoxy-2-oxo-2H-chromene-3-carboxylic acid [3-(1-methyl-1H-indol-5-yl)-phenyl]-amide] | > 100 | > 100 | > 100 |  |
| COc1ncc(-c2cccc(NC(=O)c3cc4cccc(O)c4oc3=O)c2)cn1 [compound 133, 8-Hydroxy-2-oxo-2H-chromene-3-carboxylic acid [3-(2-methoxy-pyrimidin-5-yl)-phenyl]-amide] | > 100 | > 100 | > 100 |  |
| O=C(Nc1cccc(-c2nc3ccccc3[nH]2)c1)c1cc2cccc(O)c2oc1=O [compound 15, 8-Hydroxy-2-oxo-2H-chromene-3-carboxylic acid [3-(1H-benzoimidazol-2-yl)-phenyl]-amide] | > 100 | > 100 | > 100 |  |
| COc1cccc2cc(C(=O)Nc3cccc(-c4ccc(Oc5ccccc5)cc4)c3)c(=O)oc12 [compound 60, 8-Methoxy-2-oxo-2H-chromene-3-carboxylic acid (4′-phenoxy-biphenyl-3-yl)-amide] | > 100 | > 100 | > 100 |  |
| COc1cccc2cc(C(=O)Nc3cccc(-c4cccc5[nH]ccc45)c3)c(=O)oc12 [compound 168, 8-Methoxy-2-oxo-2H-chromene-3-carboxylic acid [3-(1H-indol-4-yl)-phenyl]-amide] | > 100 |  | > 100 | > 100 |
| COc1cccc2cc(C(=O)Nc3cccc(-c4ccccc4OC(F)(F)F)c3)c(=O)oc12 [compound 72, 8-Methoxy-2-oxo-2H-chromene-3-carboxylic acid (2′-trifluoromethoxy-biphenyl-3-yl)-amide] | > 100 | > 100 | > 100 |  |
| COc1ncccc1-c1cccc(NC(=O)c2cc3cccc(O)c3oc2=O)c1 [compound 141, 8-Hydroxy-2-oxo-2H-chromene-3-carboxylic acid [3-(2-methoxy-pyridin-3-yl)-phenyl]-amide] | > 100 | > 100 | 10 to 50 |  |
| COc1cccc2cc(C(=O)Nc3cccc(-c4cccn4C(=O)OC(C)(C)C)c3)c(=O)oc12 [compound 174, 2-{3-[(8-Methoxy-2-oxo-2H-chromene-3-carbonyl)-amino]-phenyl}-pyrrole-1-carboxylic acid tert-butyl ester] | > 100 | > 100 | > 100 |  |
| CCOc1ccc(-c2cccc(NC(=O)c3cc4cccc(OC)c4oc3=O)c2)cc1 [compound 69, 8-Methoxy-2-oxo-2H-chromene-3-carboxylic acid (4′-ethoxy-biphenyl-3-yl)-amide] | > 100 | > 100 | > 100 |  |

Continued, in another order:

| EC50 (procaspase-6) [µM] | EC50 (procaspase-3; [1]) [µM] | EC50 (procaspase-7) [µM] | Structure (SMILES) | EC50 (procaspase-3) [µM] |
| --- | --- | --- | --- | --- |
| > 100 | > 100 | 0.5 to 10 | COc1ccc(-c2cccc(NC(=O)c3cc4cccc(O)c4oc3=O)c2)cc1 [compound 44, 8-Hydroxy-2-oxo-2H-chromene-3-carboxylic acid (4′-Methoxy-biphenyl-3-yl)-amide] |  |
| > 100 | > 100 | > 100 | COc1cccc2cc(C(=O)Nc3cccc(-c4ccc(N(C)C)nc4)c3)c(=O)oc12 [compound 138, 8-Methoxy-2-oxo-2H-chromene-3-carboxylic acid [3-(6-dimethylamino-pyridin-3-yl)-phenyl]-amide] |  |
| > 100 | > 100 | > 100 | O=C(Nc1cccc(-c2ccccc2OC(F)(F)F)c1)c1cc2cccc(OC(F)(F)F)c2oc1=O [compound 73, 8-Trifluoromethoxy-2-oxo-2H-chromene-3-carboxylic acid (2′-trifluoromethoxy-biphenyl-3-yl)-amide] |  |
| > 100 | > 100 | > 100 | COc1cccc2cc(C(=O)Nc3cccc(-c4cnn(C)c4)c3)c(=O)oc12 [compound 172, 8-Methoxy-2-oxo-2H-chromene-3-carboxylic acid [3-(1-methyl-1H-pyrazol-4-yl)-phenyl]-amide] |  |
| > 100 | > 100 | > 100 | O=C(Nc1cccc(-c2ccc3ccccc3c2)c1)c1cc2cccc(OC(F)(F)F)c2oc1=O [compound 82, 8-Trifluoromethoxy-2-oxo-2H-chromene-3-carboxylic acid (3-Naphthalen-2-yl-phenyl)-amide] |  |
| > 100 | > 100 | > 100 | COc1cccc2cc(C(=O)Nc3cccc(-c4ccccc4NC(C)=O)c3)c(=O)oc12 [compound 96, 8-Methoxy-2-oxo-2H-chromene-3-carboxylic acid (2′-acetylamino-biphenyl-3-yl)-amide] |  |
| 0.5 to 10 | 0.5 to 10 | 50 to 200 | O=C(Nc1cccc(-c2ccncc2)c1)c1cc2cccc(O)c2oc1=O [compound 19, 8-Hydroxy-2-oxo-2H-chromene-3-carboxylic acid (3-pyridin-4-yl-phenyl)-amide] |  |

From US8642788B2, “Activators of executioner procaspases 3, 6 and 7” (The Regents of the University of California, priority 2008, dated 2014)
